For series [1], the target named is T1, Beta-galactosidase (Bos taurus, UniProt Q58D55).
T1 sequence (Q58D55 whole entry): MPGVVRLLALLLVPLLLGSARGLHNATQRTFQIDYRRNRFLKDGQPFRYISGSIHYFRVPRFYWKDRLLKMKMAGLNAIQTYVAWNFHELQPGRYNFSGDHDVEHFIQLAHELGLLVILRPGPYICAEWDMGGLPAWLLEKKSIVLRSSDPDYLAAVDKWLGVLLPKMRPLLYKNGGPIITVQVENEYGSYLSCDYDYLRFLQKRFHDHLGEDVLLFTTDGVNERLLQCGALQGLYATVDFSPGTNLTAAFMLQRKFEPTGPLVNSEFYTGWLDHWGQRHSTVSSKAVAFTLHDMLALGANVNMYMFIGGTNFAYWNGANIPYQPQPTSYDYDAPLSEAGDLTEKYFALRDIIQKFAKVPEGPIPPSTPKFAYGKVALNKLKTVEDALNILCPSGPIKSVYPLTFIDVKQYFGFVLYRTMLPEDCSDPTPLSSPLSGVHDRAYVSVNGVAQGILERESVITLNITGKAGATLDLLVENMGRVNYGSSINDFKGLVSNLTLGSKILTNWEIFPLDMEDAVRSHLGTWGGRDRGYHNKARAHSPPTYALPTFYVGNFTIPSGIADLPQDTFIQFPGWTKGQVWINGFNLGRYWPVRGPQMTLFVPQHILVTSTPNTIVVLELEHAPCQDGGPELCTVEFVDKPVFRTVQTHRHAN
The experiment in a line: Inhibition against beta-galactosidase in bovine liver; NI is No Inhibition at 1 mM.

A short description of series [2]: Inhibition against Alpha-maninosidase in jack bean. Further details: species or system Canavalia ensiformis.
Series [3] in a line: pKa value was determined for the compound by 1H NMR titration. In kind it is physicochemical.

The term Ki denotes a dissociation constant, usually derived from enzyme kinetics or from competition with a known ligand. A low value points to higher affinity. A word on the pKa: it is the pH at which an ionisable group is half protonated.

Molecules are shown by their SMILES.

For `OC[C@@H]1N=C(NCc2ccccc2)[C@@H](O)[C@@H](O)[C@@H]1O`, the figures for the inhibition constant Ki result in series [1] and in series [2] were “No inhibition” and 0.55 µM, respectively. Besides, the pKa in series [3] came to 10.
In turn, `c1ccc(CNC2=NCCCC2)cc1` gave a Ki in series [2] of 14000 µM.
As for `CO[C@H]1O[C@@H](CNC2=N[C@@H](CO)[C@@H](O)[C@H](O)[C@@H]2O)[C@@H](O)[C@H](O)[C@H]1O`, the Ki entry is “No inhibition” in series [1] and 2.6 µM in series [2].
In series [2], `OCC1CCCC(NCc2ccccc2)=N1` (configuration not stated) had a Ki of 1400 µM.
